Experimental data: PubChem BioAssay AID330 (DTP/NCI, 2004)
Values joined by “and” are separate entries in the source; they are usually repeats but may differ in a detail not shown here. Equal values may be shown once. Toxic doses and inconclusive results are not listed. Rule for the calls: active = survival T/C of 150% or more; inactive = T/C below 125% in these data.

System: P388 leukemia ip, CD2F1 mice, survival T/C
Experiment: NCI In Vivo Anticancer Drug Screen. Data for tumor model P388 Leukemia (intraperitoneal) in CD2F1 (CDF1) mice
Conditions: endpoint: median survival time, higher = longer survival
How it was run: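 Mice carrying the transplanted tumor received test compound or vehicle. Survival was recorded in each group, and the value is the treated-group measurement divided by that of the vehicle-treated control group.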

[1] = dose: 50.0 mg/kg/injection, schedule: Q01DX009 (ip), vehicle: saline with Tween-80
[2] = dose: 50.0 mg/kg/injection, schedule: Q01DX009 (ip), vehicle: Klucel (hydroxypropylcellulose) (HPC)
[3] = dose: 100.0 mg/kg/injection, schedule: Q01DX009 (ip), vehicle: Klucel (hydroxypropylcellulose) (HPC)
[4] = dose: 200.0 mg/kg/injection, schedule: Q01DX009 (ip), vehicle: Klucel (hydroxypropylcellulose) (HPC)
[5] = dose: 100.0 mg/kg/injection, schedule: Q04DX003 (ip), vehicle: saline
[6] = dose: 200.0 mg/kg/injection, schedule: Q04DX003 (ip), vehicle: saline
[7] = dose: 100.0 mg/kg/injection, schedule: Q01DX009 (ip), vehicle: saline with Tween-80
[8] = dose: 200.0 mg/kg/injection, schedule: Q01DX009 (ip), vehicle: saline with Tween-80

Measured: T/C

CCOc1c(N=Nc2ccc(OC)cc2)c(C)nn1C(N)=S
inactive: dose: 15.0 mg/kg/injection, schedule: Q01DX005 (ip), vehicle: Klucel + Tween-80 101 % of control | dose: 30.0 mg/kg/injection, schedule: Q01DX005 (ip), vehicle: Klucel + Tween-80 100 % of control | dose: 60.0 mg/kg/injection, schedule: Q01DX005 (ip), vehicle: Klucel + Tween-80 98 % of control and 123 % of control | dose: 120.0 mg/kg/injection, schedule: Q01DX005 (ip), vehicle: Klucel + Tween-80 110 % of control and 91 % of control | dose: 240.0 mg/kg/injection, schedule: Q01DX005 (ip), vehicle: Klucel + Tween-80 100 % of control

Cc1nnc2c(N)nccn12
inactive: dose: 100.0 mg/kg/injection, schedule: Q01DX001 (ip), vehicle: Klucel (hydroxypropylcellulose) (HPC) 94 % of control | dose: 200.0 mg/kg/injection, schedule: Q01DX001 (ip), vehicle: Klucel (hydroxypropylcellulose) (HPC) 96 % of control

CCCCCc1cc(O)c2c(c1)OC(C)(CCC=C(C)C)C=C2 (stereo not given)
inactive: dose: 6.25 mg/kg/injection, schedule: Q01DX009 (ip), vehicle: saline with Tween-80 100 % of control | dose: 12.5 mg/kg/injection, schedule: Q01DX009 (ip), vehicle: saline with Tween-80 110 % of control | dose: 25.0 mg/kg/injection, schedule: Q01DX009 (ip), vehicle: saline with Tween-80 109 % of control | [1] 112 % of control

COc1cccc2c1C(=O)c1c(O)c3c(c(O)c1C2=O)C[C@@](O)(C(=O)CO)C[C@@H]3OC1CC(N)C(OC)C(C)O1 (stereo not given in full)
inactive: dose: 12.5 mg/kg/injection, schedule: Q04DX003 (ip), vehicle: water 90 % of control
active: dose: 0.39 mg/kg/injection, schedule: Q01DX009 (ip), vehicle: saline 201 % of control | dose: 0.65 mg/kg/injection, schedule: Q01DX009 (ip), vehicle: saline 201 % of control | dose: 1.08 mg/kg/injection, schedule: Q01DX009 (ip), vehicle: saline 324 % of control | dose: 1.08 mg/kg/injection, schedule: Q04DX003 (ip), vehicle: saline 190 % of control | dose: 1.8 mg/kg/injection, schedule: Q04DX003 (ip), vehicle: saline 263 % of control | dose: 3.0 mg/kg/injection, schedule: Q04DX003 (ip), vehicle: saline 257 % of control | dose: 3.13 mg/kg/injection, schedule: Q04DX003 (ip), vehicle: water 172 % of control | dose: 5.0 mg/kg/injection, schedule: Q04DX003 (ip), vehicle: saline 163 % of control and 172 % of control

COc1ccc(NN=O)nc1Br
active: dose: 100.0 mg/kg/injection, schedule: Q01DX009 (ip), vehicle: saline 157 % of control
inactive: dose: 3.12 mg/kg/injection, schedule: Q01DX009 (ip), vehicle: saline 108 % of control | dose: 6.25 mg/kg/injection, schedule: Q01DX009 (ip), vehicle: saline 108 % of control | dose: 12.5 mg/kg/injection, schedule: Q01DX009 (ip), vehicle: saline 108 % of control and 109 % of control | dose: 25.0 mg/kg/injection, schedule: Q01DX009 (ip), vehicle: saline 110 % of control and 120 % of control

COc1cc(N=Nc2ccc(N)nc2N)c(OC)cc1N=Nc1ccc([N+](=O)[O-])cc1
inactive: dose: 50.0 mg/kg/injection, schedule: Q01DX005 (ip), vehicle: saline with Tween-80 115 % of control | dose: 100.0 mg/kg/injection, schedule: Q01DX005 (ip), vehicle: saline with Tween-80 107 % of control | dose: 200.0 mg/kg/injection, schedule: Q01DX005 (ip), vehicle: saline with Tween-80 107 % of control

Nc1ccc2ccccc2c1N=Nc1ccccc1
inactive: [2] 117 % of control | [3] 118 % of control | [4] 120 % of control | dose: 400.0 mg/kg/injection, schedule: Q01DX009 (ip), vehicle: Klucel (hydroxypropylcellulose) (HPC) 117 % of control

C/C=C(\C)C(=O)N/N=C/c1cccnc1
inactive: dose: 50.0 mg/kg/injection, schedule: Q01DX005 (ip), vehicle: Klucel (hydroxypropylcellulose) (HPC) 103 % of control | dose: 100.0 mg/kg/injection, schedule: Q01DX005 (ip), vehicle: Klucel (hydroxypropylcellulose) (HPC) 103 % of control | dose: 200.0 mg/kg/injection, schedule: Q01DX005 (ip), vehicle: Klucel (hydroxypropylcellulose) (HPC) 103 % of control

C1CCNCC1.COc1ccccc1C(=O)[CH-]C(=O)C(F)(F)F.COc1ccccc1C(=O)[CH-]C(=O)C(F)(F)F.COc1ccccc1C(=O)[CH-]C(=O)C(F)(F)F.COc1ccccc1C(=O)[CH-]C(=O)C(F)(F)F.[Eu+3]
inactive: [2] 94 % of control | [4] 91 % of control

CC1=CC(OC2CCCCC2)OC1=O (stereo not given)
inactive: dose: 47.5 mg/kg/injection, schedule: Q01DX005 (ip), vehicle: Klucel (hydroxypropylcellulose) (HPC) 104 % of control | dose: 95.0 mg/kg/injection, schedule: Q01DX005 (ip), vehicle: Klucel (hydroxypropylcellulose) (HPC) 101 % of control | dose: 190.0 mg/kg/injection, schedule: Q01DX005 (ip), vehicle: Klucel (hydroxypropylcellulose) (HPC) 104 % of control

Cc1cc2nc(CN)[nH]c2cc1C
inactive: dose: 50.0 mg/kg/injection, schedule: Q04DX003 (ip), vehicle: saline 100 % of control | [5] 100 % of control | [6] 95 % of control

COc1cccc(CN2CC(C)N(N=Cc3c4c(O)c5c(O)c(C)c6c(c5c3O)C(=O)C(C)(O/C=C/C(OC)C(C)C(OC(C)=O)C(C)C(O)C(C)C(O)C(C)/C=C/C=C(\C)C(=O)N4)O6)C(C)C2)c1 (stereo not given)
inactive: [1] 96 % of control | [7] 95 % of control | [8] 99 % of control

CCCCCCCCCCN(CCCCCCCCCC)C1CC(OC2CC(O)(C(C)=O)Cc3c(O)c4c(c(O)c32)C(=O)c2c(OC)cccc2C4=O)OC(C)C1O (stereo not given)
inactive: dose: 3.13 mg/kg/injection, schedule: Q01DX009 (ip), vehicle: distilled water + Tween-80 113 % of control | dose: 4.7 mg/kg/injection, schedule: Q04DX003 (ip), vehicle: other 104 % of control | dose: 6.25 mg/kg/injection, schedule: Q01DX009 (ip), vehicle: distilled water + Tween-80 96 % of control | dose: 9.4 mg/kg/injection, schedule: Q04DX003 (ip), vehicle: other 104 % of control | dose: 12.5 mg/kg/injection, schedule: Q01DX009 (ip), vehicle: distilled water + Tween-80 102 % of control | dose: 18.8 mg/kg/injection, schedule: Q04DX003 (ip), vehicle: other 112 % of control | dose: 37.5 mg/kg/injection, schedule: Q04DX003 (ip), vehicle: other 105 % of control | dose: 75.0 mg/kg/injection, schedule: Q04DX003 (ip), vehicle: other 103 % of control

O=c1c2cncnc2sc2nc3ccccc3n12
inactive: dose: 60.0 mg/kg/injection, schedule: Q01DX005 (ip), vehicle: saline with Tween-80 95 % of control | dose: 120.0 mg/kg/injection, schedule: Q01DX005 (ip), vehicle: saline with Tween-80 94 % of control | dose: 240.0 mg/kg/injection, schedule: Q01DX005 (ip), vehicle: saline with Tween-80 88 % of control

O=C(O)CC(O)CCCCCO (stereo not given)
inactive: [1] 110 % of control | [7] 110 % of control | [5] 106 % of control | [8] 100 % of control | [6] 113 % of control | dose: 400.0 mg/kg/injection, schedule: Q04DX003 (ip), vehicle: saline 100 % of control

CCn1c(O)c(N=NC(=S)NC)c2ccccc21
inactive: dose: 9.37 mg/kg/injection, schedule: Q01DX009 (ip), vehicle: saline with Tween-80 101 % of control | dose: 18.75 mg/kg/injection, schedule: Q01DX009 (ip), vehicle: saline with Tween-80 104 % of control | dose: 37.5 mg/kg/injection, schedule: Q01DX009 (ip), vehicle: saline with Tween-80 93 % of control

C=C(CO)C(=O)OC1CC(=C)C2CC(O)C(=C)C2C2OC(=O)C(=C)C12 (stereo not given)
inactive: dose: 100.0 mg/kg/injection, schedule: Q01DX001 (ip), vehicle: saline 113 % of control | dose: 200.0 mg/kg/injection, schedule: Q01DX001 (ip), vehicle: saline 99 % of control | dose: 400.0 mg/kg/injection, schedule: Q01DX001 (ip), vehicle: saline 104 % of control

CN(C)c1ccc(/C=C/c2nc3ccccc3s2)cc1
inactive: dose: 25.0 mg/kg/injection, schedule: Q01DX009 (ip), vehicle: Klucel (hydroxypropylcellulose) (HPC) 108 % of control | [2] 99 % of control | [3] 99 % of control | [4] 98 % of control

Cc1ccccc1C(C)C[n+]1cccc(C)c1C (stereo not given)
inactive: dose: 6.25 mg/kg/injection, schedule: Q01DX005 (ip), vehicle: saline with Tween-80 101 % of control | dose: 12.5 mg/kg/injection, schedule: Q01DX005 (ip), vehicle: saline with Tween-80 101 % of control
